According to US11304943B2, “Combination for use in the treatment of lung cancer” (LDN Pharma Limited, priority 2017, dated 2022):

Legend:
A549 (lung cancer) cells = assay: Cell counting with trypan blue (cell number / cytostasis and cell viability) in A549 cells; format: cell-based
Method: The cytostatic effect upon administration of 6-β-naltrexol (6BN) and naltrexone (NTX) to A549 (lung cancer) and HCT116 (colorectal cancer) cells was studied in vitro. Firstly, A549 and HCT116 cells were seeded into 6-well plates at a density of 2×10^5/well and left to adhere overnight. Cells were then cultured with 0.001 μM, 0.01 μM, 0.1 μM or 1 μM of 6BN or NTX for 48 hours. Experiments were performed alongside a control where cells were not administered with 6-β-naltrexol or naltrexone (FIG. 1).
The viability of cells was then measured by cell counting using trypan blue as a way of discriminating live and dead cells. Cytostasis was indicated by a reduction in cell number and no associated reduction in cell viability.
Next, the effect of co-administration of low dose (10 nM) or high dose (10 μM) 6-β-naltrexol or naltrexone (NTX) alongside calcitriol was investigated. The cytostatic and cytotoxic effect was investigated in both A549 and HCT116 cells. A549 and HCT116 cells were seeded into 6-well plates at a density of 2×10^5/well and left to adhere overnight. The following day low or high dose 6BN or NTX was added to cells in isolation or in combination with calcitriol and incubated for 48 hours. A549 cells were co-administered with 10 nM calcitriol, whereas HCCT116 cells were co-administered 10 nM calcitriol.
Cell viability and cytostasis were then determined as described in example 1.

[1] = system: HCT116 (colorectal cancer) cells; assay: Cell counting with trypan blue (cell number / cytostasis and cell viability) in HCT116 cells; format: cell-based; details: 48 hours

## C=C1/C(=C\C=C2/CCC[C@]3(C)[C@@H]([C@H](C)CCCC(C)(C)O)CC[C@@H]23)C[C@@H](O)C[C@@H]1O [Calcitriol, calcitriol, reference compound]
A549 (lung cancer) cells; lung cancer cells, calcitriol administered in isolation
  cytostatic effect of calcitriol in isolation: no independent cytostatic effect

## Oc1ccc2c3c1OC1[C@H](O)CC[C@@]4(O)[C@@H](C2)N(CC2CC2)CC[C@]314 (stereo partly drawn) [6-β-naltrexol, 17-(Cyclopropylmethyl)-4,5-epoxymorphinan-3,6beta,14-triol]
A549 (lung cancer) cells; A549 cells, 10 nM 6BN co-administered with calcitriol, 48 hours
  cytostasis (cell number) upon co-administration with calcitriol: significant reduction in cytostasis
A549 (lung cancer) cells; A549 cells, 10 μM 6BN co-administered with calcitriol, 48 hours
  cytostasis (cell number) upon co-administration with calcitriol: not observed
A549 (lung cancer) cells; A549 cells, 0.001-1 μM, 48 hours, trypan blue
  cell viability: No reduction in cell viability
A549 (lung cancer) cells; A549 lung cancer cells, 0.001-1 μM, 48 hours, single agent
  cytostasis (cell number): selective reduction in cytotostasis in lung cancer cells
[1]; HCT116 cells, 10 nM 6BN co-administered with calcitriol
  cytostasis (cell number) upon co-administration with calcitriol: not observed
[1]; HCT116 cells, 0.001-1 μM, trypan blue
  cell viability: No reduction in cell viability
[1]; HCT116 colorectal cancer cells, 0.001-1 μM, single agent, effect at higher concentrations
  cytostasis (cell number): less pronounced decrease in cytotostasis

## O=C1CC[C@@]2(O)[C@H]3Cc4ccc(O)c5c4[C@@]2(CCN3CC2CC2)[C@H]1O5 [NTX, naltrexone, reference compound]
[1]; HCT116 cells, 10 nM NTX with 100 nM calcitriol
  cell viability upon combination with calcitriol: reduces the viability
